Assay results taken from PubChem BioAssay AID328 (DTP/NCI, 2004).
Values joined by “and” are separate entries in the source; they are usually repeats but may differ in a detail not shown here. Equal entries are not always repeated. Toxic doses and inconclusive results are not listed. Rule for the calls: active = survival T/C of 150% or more; inactive = T/C below 125% in these data.

System: BDF1 mice, P388 leukemia ip, median survival T/C
Experiment: NCI In Vivo Anticancer Drug Screen. Data for tumor model P388 Leukemia (intraperitoneal) in B6D2F1 (BDF1) mice
Conditions: endpoint: median survival time, higher = longer survival
In short: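 Mice carrying the transplantable tumour receive compound or vehicle. Survival is followed in each arm, and the treated measure is divided by the vehicle measure.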

[1] = dose: 100.0 mg/kg/injection, schedule: Q04DX003 (ip), vehicle: saline with Tween-80
[2] = dose: 200.0 mg/kg/injection, schedule: Q04DX003 (ip), vehicle: saline with Tween-80
[3] = dose: 400.0 mg/kg/injection, schedule: Q04DX003 (ip), vehicle: saline with Tween-80

Measured: T/C

CCCCNc1c(OC)ccc2c(C)c3[n+](cc12)CCc1cc(OC)c(OC)cc1-3
inactive: dose: 1.56 mg/kg/injection, schedule: Q04DX003 (ip), vehicle: water 103 % of control | dose: 3.13 mg/kg/injection, schedule: Q04DX003 (ip), vehicle: water 103 % of control

CCCCCCC(=O)O[C@H]1CC[C@H]2[C@@H]3CCC4=CC(=O)CC[C@]4(C)[C@H]3CC[C@]12C
inactive: dose: 25.0 mg/kg/injection, schedule: Q01DX009 (ip), vehicle: other 120 % of control | dose: 25.0 mg/kg/injection, schedule: Q04DX003 (ip), vehicle: other 100 % of control | dose: 50.0 mg/kg/injection, schedule: Q01DX009 (ip), vehicle: other 100 % of control | dose: 50.0 mg/kg/injection, schedule: Q04DX003 (ip), vehicle: other 100 % of control | dose: 66.0 mg/kg/injection, schedule: Q01DX009 (ip), vehicle: other 100 % of control | dose: 100.0 mg/kg/injection, schedule: Q01DX009 (ip), vehicle: other 100 % of control | dose: 100.0 mg/kg/injection, schedule: Q04DX003 (ip), vehicle: other 100 % of control | dose: 150.0 mg/kg/injection, schedule: Q01DX009 (ip), vehicle: other 90 % of control

O=C[C@@H](CO)O[C@H](C=O)n1cnc2c(=O)[nH]cnc21
active: dose: 108.0 mg/kg/injection, schedule: Q04DX003 (ip), vehicle: water 170 % of control | dose: 180.0 mg/kg/injection, schedule: Q04DX003 (ip), vehicle: water 179 % of control and 184 % of control | dose: 300.0 mg/kg/injection, schedule: Q04DX003 (ip), vehicle: water 227 % of control and 247 % of control

CCOC(=O)C1c2cccc(O)c2C=CN1C(C)=O (configuration not stated)
inactive: [1] 91 % of control | [2] 91 % of control | [3] 95 % of control

[Se]c1nccn2cnnc12
inactive: dose: 6.25 mg/kg/injection, schedule: Q01DX001 (ip), vehicle: saline with Tween-80 122 % of control | dose: 12.5 mg/kg/injection, schedule: Q01DX001 (ip), vehicle: saline with Tween-80 105 % of control | dose: 25.0 mg/kg/injection, schedule: Q01DX001 (ip), vehicle: saline with Tween-80 103 % of control

CC(=O)Nc1ccc(S(=O)(=O)N(CCO)c2ccccc2)cc1
inactive: dose: 12.5 mg/kg/injection, schedule: Q01DX009 (ip), vehicle: saline with Tween-80 104 % of control | dose: 12.5 mg/kg/injection, schedule: Q04DX003 (ip), vehicle: Klucel (hydroxypropylcellulose) (HPC) 100 % of control | dose: 25.0 mg/kg/injection, schedule: Q01DX009 (ip), vehicle: saline with Tween-80 104 % of control | dose: 25.0 mg/kg/injection, schedule: Q04DX003 (ip), vehicle: Klucel (hydroxypropylcellulose) (HPC) 109 % of control | dose: 50.0 mg/kg/injection, schedule: Q01DX009 (ip), vehicle: saline with Tween-80 96 % of control | dose: 50.0 mg/kg/injection, schedule: Q04DX003 (ip), vehicle: Klucel (hydroxypropylcellulose) (HPC) 109 % of control | dose: 200.0 mg/kg/injection, schedule: Q04DX003 (ip), vehicle: Klucel (hydroxypropylcellulose) (HPC) 87 % of control

CCOC(=O)C1C(=O)C(C(=O)Nc2ccccc2)C(=O)C(C(=O)OCC)C1c1ccc(O)cc1 (configuration not stated)
inactive: [1] 110 % of control and 90 % of control | [2] 115 % of control | [3] 110 % of control and 100 % of control

O=C(Oc1ccc([N+](=O)[O-])cc1)c1ccc2ccccc2n1
inactive: dose: 100.0 mg/kg/injection, schedule: Q01DX009 (ip), vehicle: saline with Tween-80 111 % of control | [1] 95 % of control | dose: 200.0 mg/kg/injection, schedule: Q01DX009 (ip), vehicle: saline with Tween-80 111 % of control | [2] 109 % of control | dose: 400.0 mg/kg/injection, schedule: Q01DX009 (ip), vehicle: saline with Tween-80 95 % of control | [3] 90 % of control

O=c1ccc2cc(-c3c(Oc4cc5ccc(O)cc5oc4=O)ccc4ccc(=O)oc34)c(O)cc2o1
inactive: dose: 3.0 mg/kg/injection, schedule: Q01DX009 (ip), vehicle: saline 96 % of control | dose: 6.0 mg/kg/injection, schedule: Q01DX009 (ip), vehicle: saline 111 % of control | dose: 12.0 mg/kg/injection, schedule: Q01DX009 (ip), vehicle: saline 105 % of control

CC(=O)OCC1OC(O)C(NC(=O)C(F)(F)F)C(OC(C)=O)C1OC(C)=O (configuration not stated)
inactive: dose: 12.5 mg/kg/injection, schedule: Q04DX003 (ip), vehicle: saline 118 % of control | dose: 12.5 mg/kg/injection, schedule: Q## X003 (ip), vehicle: saline 104 % of control | dose: 25.0 mg/kg/injection, schedule: Q## X003 (ip), vehicle: saline 119 % of control

CC(C)(C)OC(=O)NC(CCC(=O)O)(Cc1ccccc1)C(=O)NC(CCC(=O)O)(Cc1ccccc1)C(=O)OCc1ccccc1 (configuration not stated)
inactive: dose: 200.0 mg/kg/injection, schedule: Q01DX005 (ip), vehicle: saline with Tween-80 90 % of control
